Measured values reported in patent publication US4843079A, “Fused heteroalkylene quinolinamines” (Hoechst-Roussel Pharmaceuticals, Inc., priority 1988, dated 1989).
Structures can show the parent of a compound that is named as a salt. Where two headings read alike, the source gives them in different places.

What was measured:
acetylcholinesterase = acetylcholinesterase (Homo sapiens, UniProt P22303); test: biochemical
[1] = system: scopolamine Induced Memory Deficit; test: Dark Avoidance Assay (scopolamine-impaired memory); assay type: in vivo; settings: mice, retested 24 hours later
Protocol: This utility of the compounds of the present invention mentioned above can also be ascertained by determining the ability of these compounds to restore cholinergically deficient memory in the Dark Avoidance Assay. In this assay mice are tested for their ability to remember an unpleasant stimulus for a period of 24 hours. A mouse is placed in a chamber that contains a dark compartment; a strong incandescent light drives it to the dark compartment, where an electric shock is administered through metal plates on the floor. The animal is removed from the testing apparatus and tested again, 24 hours later, for the ability to remember the electric shock.
If scopolamine, an anticholinergic that is known to cause memory impairment, is administered before an animal's initial exposure to the test chamber, the animal re-enters the dark compartment shortly after being placed in the test chamber 24 hours later. This effect of scopolamine is blocked by an active test compound, resulting in a greater interval before re-entry in the dark compartment.
The results for an active compound are expressed as the percent of a group of animals in which the effect of scopolamine is blocked, as manifested by an increased interval between being placed in the test chamber and re-entering the dark compartment.

[2] = photometric method of Ellman et al., read-out: IC50, Cholinesterase Inhibition

Sequence of acetylcholinesterase (P22303 32-614): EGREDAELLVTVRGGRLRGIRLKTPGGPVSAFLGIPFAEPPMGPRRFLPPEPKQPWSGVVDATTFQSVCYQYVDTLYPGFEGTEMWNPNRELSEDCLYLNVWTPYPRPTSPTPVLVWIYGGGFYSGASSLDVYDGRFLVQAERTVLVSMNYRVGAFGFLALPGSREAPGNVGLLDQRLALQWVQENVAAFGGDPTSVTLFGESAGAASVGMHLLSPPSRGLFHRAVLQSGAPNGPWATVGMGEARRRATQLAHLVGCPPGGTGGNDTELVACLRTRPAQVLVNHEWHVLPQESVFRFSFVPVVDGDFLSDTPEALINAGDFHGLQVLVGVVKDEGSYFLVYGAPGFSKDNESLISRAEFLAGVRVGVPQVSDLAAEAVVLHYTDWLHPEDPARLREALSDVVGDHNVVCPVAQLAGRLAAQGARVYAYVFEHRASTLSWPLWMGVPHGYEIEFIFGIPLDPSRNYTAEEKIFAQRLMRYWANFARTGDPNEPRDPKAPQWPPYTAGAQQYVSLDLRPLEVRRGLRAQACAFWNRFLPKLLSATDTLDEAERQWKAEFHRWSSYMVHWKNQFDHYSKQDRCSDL

Nc1c2c(nc3ccccc13)CSC2 [9-Amino-1,3-dihydrothieno[3,4-b]quinoline]
IC50 (acetylcholinesterase; [2]): 47 nM | % of animals with scopolamine Induced Memory Deficit Reversed ([1]; dose 0.31 mg/kg body weight): 14%

Nc1c2c(nc3ccccc13)CCSC2 [10-amino-3,4-dihydro-1H-thiopyrano[4,3-b]quinoline]
IC50 (acetylcholinesterase; [2]): 970 nM | % of animals with scopolamine Induced Memory Deficit Reversed ([1]; dose 0.16 mg/kg body weight): 27%

Cc1ccc2c(N)c3c(nc2c1)CCSC3 [10-amino-3,4-dihydro-7-methyl-1H-thiopyrano[4,3-b]quinoline]
IC50 (acetylcholinesterase; [2]): 190 nM

Nc1c2c(nc3cc(C(F)(F)F)ccc13)CCSC2 [10-amino-3,4-dihydro-7-trifluoromethyl-1H-thiopyrano[4,3-b]quinoline]
IC50 (acetylcholinesterase): 640 nM

Nc1c2c(nc3ccccc13)CCS2 [9-amino-2,3-dihydrothieno[3,2-b]quinoline]
IC50 (acetylcholinesterase; [2]): 440 nM

Nc1c2c(nc3ccccc13)CCOC2 [10-Amino-3,4-dihydro-1H-pyrano[4,3-b]quinoline fumarate]
IC50 (acetylcholinesterase; [2]): 200 nM

c1ccc(CNc2c3c(nc4ccccc24)CCSC3)cc1 [10-benzylamino-3,4-dihydro-1H-thiopyrano[4,3-b]quinoline hydrochloride]
IC50 (acetylcholinesterase): 3900 nM

CNC(=O)Oc1ccc2c(c1)[C@]1(C)CCN(C)[C@@H]1N2C [Physostigmine, reference compound]
% of animals with scopolamine Induced Memory Deficit Reversed ([1]; dose 0.31 mg/kg body weight): 20%

Nc1c2c(nc3cc(F)ccc13)CCSC2 [10-amino-3,4-dihydro-7-fluoro-1H-thiopyrano [4,3-b]quinoline]
IC50 (acetylcholinesterase; [2]): 150 nM | % of animals with scopolamine Induced Memory Deficit Reversed ([1]; dose 0.31 mg/kg body weight): 67%
